The values below come from publication PMC2920814 (PLoS ONE, 2010).

Where “and” joins values, the source holds several entries; their conditions need not be identical. Identical values can stand only once. Entries after “also recorded” stand apart in the source; their conditions may differ.

The target of data set [1] is Erk2 (Mus musculus, UniProt P63085). Put plainly: Affinity chromatography on immobilized drugs, Western blotting. The following applies: adult mouse brain extract 500 µg, sepharose beads. The format is binding.
Chain of Erk2 (P63085 whole entry): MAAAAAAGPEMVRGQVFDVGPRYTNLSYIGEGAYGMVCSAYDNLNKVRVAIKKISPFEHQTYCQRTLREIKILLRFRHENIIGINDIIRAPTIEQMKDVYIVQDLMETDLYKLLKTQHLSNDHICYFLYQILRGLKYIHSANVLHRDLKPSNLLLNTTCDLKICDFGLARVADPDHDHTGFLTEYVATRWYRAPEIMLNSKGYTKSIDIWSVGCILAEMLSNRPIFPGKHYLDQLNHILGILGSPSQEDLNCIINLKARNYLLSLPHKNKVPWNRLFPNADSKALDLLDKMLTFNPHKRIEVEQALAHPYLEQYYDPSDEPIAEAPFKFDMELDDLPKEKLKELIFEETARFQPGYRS
Data set [2] deals with T1, pyridoxal kinase (PDXK) (Mus musculus, UniProt Q8K183).
T1 sequence (Q8K183 1-312): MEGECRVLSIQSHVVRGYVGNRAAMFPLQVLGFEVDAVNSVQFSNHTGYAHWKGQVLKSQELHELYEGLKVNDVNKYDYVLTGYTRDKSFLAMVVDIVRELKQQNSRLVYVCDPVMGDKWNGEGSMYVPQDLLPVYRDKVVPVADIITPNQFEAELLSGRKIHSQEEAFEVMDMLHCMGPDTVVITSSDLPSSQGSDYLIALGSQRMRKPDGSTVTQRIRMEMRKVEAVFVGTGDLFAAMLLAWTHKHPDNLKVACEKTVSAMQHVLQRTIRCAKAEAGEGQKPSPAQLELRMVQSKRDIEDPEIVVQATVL
The description is as above. Format: binding. Conditions: adult mouse brain extract 500 µg, sepharose beads.

Data set [3] has as its system permanent focal cerebral ischemia (pMCAo) in adult mice. As to the kind of experiment: Permanent middle cerebral artery occlusion (pMCAo), infarct volumes by TTC staining. The format is in vivo, mouse (C57 b/6). Conditions: 3 hrs after occlusion.
Data set [4] can be described thus: Blood brain barrier permeability, brain and plasma level after IV injection (LC/MS/MS). Format: in vivo. Conditions: SD, rat, brain, sampling time 15 min, healthy adult rats, n = 2. How it is done: Dosed animals were sacrificed at 15 min after the end of the intravenous injection. Blood were collected through the retro-orbital sinus using a capillary tube. Animals were then perfused with saline solution into the heart to […] the brain. Brain was collected, and homogenized. Both plasma and brain samples were analyzed using LC/MS/MS determination, according to ADME-Bioanalysis (Vergeze, France) procedures.

Data set [5] has as its system E18 mixed hippocampal cell cultures. Put plainly: Kainate (KA)-induced neuronal excitotoxicity, PI staining. Format: cell-based, rat (Wistar). Conditions: KA 200 µM for 5 hrs; for neuroprotective effect on KA-induced neuronal death (relative neuronal death): 10 div cultures, compound added with KA, 0.05 to 50 µM.
Data set [6] concerns ERK2. On the set-up: method as in PMID 15975926, PMID 15985434. The following applies: previously described; ref [30], [31]; cited from earlier work.
For data set [7], the system named is CDK5/p25. Details: method as in PMID 15975926, PMID 15985434. The following applies: previously described; ref [30], [31]; cited from earlier work.
For data set [8], the system named is CK1. On the set-up: method as in PMID 15975926, PMID 15985434. Conditions: previously described; ref [30], [31]; cited from earlier work.
Data set [9] deals with CDK2/CyclE. On the set-up: method as in PMID 15975926, PMID 15985434. Conditions: previously described; ref [30], [31]; cited from earlier work.
Data set [10] has as its system CDK1/CyclB. Details: method as in PMID 15975926, PMID 15985434. Conditions: previously described; ref [30], [31]; cited from earlier work.
[11] abbreviates: ICV infusion 500 µM starting 48 hrs before pMCAo.
The mark [12] stands for this setting: IP 25 mg/kg 15 min pre- and 1 hr post-MCAo, 25 mg/kg.

In the case of `CC[C@H](CO)Nc1nc(NCc2ccccc2)c2ncn(C(C)C)c2n1` [(R)-roscovitine], in data set [1], the “binding of Erk2 to immobilized compound” value is on record as “bind”. In data set [2], the “binding of PDXK to immobilized compound” value is given as “bind”.
For the compound `CC[C@@H](CO)Nc1nc(NCc2ccccc2)c2ncn(C(C)C)c2n1` [(S)-roscovitine], in data set [1], the “binding of Erk2 to immobilized compound” value is “preferentially bound and bind”. Besides, the “binding of PDXK to immobilized compound” value in data set [2] is given as “did not bind”. Besides, in data set [3] (setting [11]), the “decrease of the total infarct volume compared to vehicle” value is 28% and 27.7%; the “ischemic core volume compared to vehicle” value is “comparable”; the “reduction of the ischemic (hypometabolic) zone volume compared to vehicle” value is 36% and 35.8%. Besides, in [3] (IP 25 mg/kg 15 min pre- and 1 hr post-MCAo), the “ischemic core volume compared to vehicle” value is recorded as “comparable”. In [3] (setting [12]), the “decrease of the ischemic (hypometabolic) zone volume compared to vehicle” value is 39% and 38.9%; the “decrease of the total infarct volume compared to vehicle” value is 31% and 30.7%. Also, in data set [4] (20 mg/kg, i.v. 20 mg/kg), the Kp at 0.25 h was found to be 0.15. In data set [4] (30 mg/kg, i.v. 30 mg/kg), this compound displayed a concentration ratio (Kp) at 0.25 h of 0.17. The “neuroprotective effect compared to the (R) stereoisomer” value in [5] (0.5 µM) is “significantly stronger neuroprotective effect; also recorded: significantly increased neuroprotective activity”.
For `CC[C@H](CO)Nc1nc(N(C)Cc2ccccc2)c2ncn(C(C)C)c2n1` [N^6-methyl (R)-roscovitine], the IC50 is over 1000 µM in [6]; 45 µM in data set [7]; over 1000 µM in data set [8]; 250 µM in [9]; 45 µM in data set [10]. Moreover, the “binding of PDXK to immobilized compound” value in [2] is recorded as “bind”. The “neuroprotective effect on KA-induced neuronal death (relative neuronal death)” value in data set [5] was “no significant neuroprotective effect”; in data set [5] (listed as N^6-methyl-(R)-roscovitine), “did not exhibited any neuroprotective effect”.
Take `CC[C@H](CO)Nc1nc(OCc2ccccc2)c2ncn(C(C)C)c2n1` [O^6-(R)-roscovitine]: the IC50 in data set [6] was 700 µM; in [7], 200 µM; in [8], over 1000 µM; in data set [9], 250 µM; in data set [10] it was 100 µM. Besides, the “neuroprotective effect on KA-induced neuronal death (relative neuronal death)” value in [5] is “no significant neuroprotective effect; also recorded: did not exhibited any neuroprotective effect”.
